# Test results published in US5998436A, “Pyridonecarboxylic acid derivatives or their salts and antibacterial agent comprising the same as the active ingredient” (Wakunaga Pharmaceuticals Co., Ltd., priority 1995, dated 1999).
# Counter-ions that a name gives are not always drawn. Like-named read-outs stand apart in the source and are kept apart here.
# What was measured:
# P. aeruginosa IFO 3445 = assay: minimum growth inhibitory concentration (MIC), standard method of Japan Chemotherapy Society; assay type: cell-based; conditions: Pseudomonas aeruginosa
# Protocol: (§1) It should be noted that ciprofloxacin, levofloxacin,sparfloxacin and tosufloxacin which are conventional antibacterials were also evaluated for their minimum growth inhibitory concentration (MIC, μg/ml) for the purpose of comparison.
# S. epidermidis IFO12293 = assay: as above; assay type: cell-based; conditions: Staphylococcus epidermidis
# Protocol: as §1
# S. aureus 209P = assay: as above; assay type: cell-based; conditions: Staphylococcus aureus, read-out: minimum growth inhibitory concentration (MIC)
# Protocol: as §1
# Female ICR mice (ears) = conditions: mouse, in vivo, iv, 40 mg/kg
# Protocol: The compounds of the Examples 9, 10, 12 and 39 as described above were subjected to phototoxicity test by the procedure as described below.
# Female ICR mice (5 to 6 week old) were intravenously administered with the test compound (40 mg/kg/10 ml), and irradiated with UV (320 to 400 nm, 1.8 mW/cm^2 /sec) for 4 hours. Abnormality in the ears was monitored at 0 hour (immediately after the irradiation) and after 24 and 48 hours. The ear abnormality was evaluated by the following is criteria: no abnormality (0 point), very slight erythema (1 point), well defined erythema (2 points), moderate to severe erythema and edema formation (3 points). Tosufloxacin which is a conventional known antibacterial agent was also tested in a similar way for the purpose of comparison.
# [1] = IFO3445, P. aeruginosa IFO 3445, read-out: minimum growth inhibitory concentration (MIC)
# [2] = S. epidermidis IFO12293, read-out: minimum growth inhibitory concentration (MIC)
"ear abnormality score (0 no abnormality, 1 very slight erythema, 2 well defined erythema, 3 moderate to severe erythema and edema) (Female ICR mice (ears)) [point]","ear abnormality, occurrence (Female ICR mice (ears))",MIC (P. aeruginosa IFO 3445; [1]) [µg/mL],MIC (S. epidermidis IFO12293; [2]) [µg/mL],MIC (S. aureus 209P; S. aureus 209P) [µg/mL],SMILES,"MIC (P. aeruginosa IFO 3445; IFO3445, read-out: minimum growth inhibitory concentration (MIC)) [µg/mL]","MIC (S. epidermidis IFO12293; IFO12293, read-out: minimum growth inhibitory concentration (MIC)) [µg/mL]",MIC (S. aureus 209P; 209P) [µg/mL]
–,–,–,–,–,"O=C(O)c1cn(C2CC2)c2cc(N3CCNCC3)c(F)cc2c1=O [Ciprofloxacin, ciprofloxacin, reference compound]",0.2,0.39,0.1
0,0/3,0.05,0.025,< 0.013,"Nc1nc(-n2cc(C(=O)O)c(=O)c3cc(F)c(N4CC(N)C4)c(Cl)c32)c(F)cc1F [Ex. 9, 7-(3-aminoazetidin-1-yl)-1-(6-amino-3,5-difluoropyridin-2-yl)-8-chloro-6-fluoro-4-oxo-1,4-dihydroquinoline-3-carboxylic acid]",–,–,–
0,0/3,0.1,0.025,< 0.013,"CNC1CN(c2c(F)cc3c(=O)c(C(=O)O)cn(-c4nc(N)c(F)cc4F)c3c2Cl)C1 [Ex. 10, 1-(6-amino-3,5-difluoropyridin-2-yl)-8-chloro-6-fluoro-7-(3-methylaminoazetidin-1-yl)-4-oxo-1,4-dihydroquinoline-3-carboxylic acid]",–,–,–
0,0/3,0.39,< 0.013,< 0.013,"Nc1nc(-n2cc(C(=O)O)c(=O)c3cc(F)c(N4CC(O)C4)c(Cl)c32)c(F)cc1F [Ex. 12, 3-hydroxyazetidine salt of 1-(6-amino-3,5-difluoropyridin-2-yl)-8-chloro-6-fluoro-7-(3-hydroxyazetidin-1-yl)-4-oxo-1,4-dihydroquinoline-3-carboxylic acid]",–,–,–
0,0/3,0.05,0.025,< 0.013,"Nc1nc(-n2cc(C(=O)O)c(=O)c3cc(F)c(N4CC(N)C4)c(Br)c32)c(F)cc1F [Ex. 39, 7-(3-aminoazetidin-1-yl)-1-(6-amino-3,5-difluoropyridin-2-yl)-8-bromo-6-fluoro-4-oxo-1,4-dihydroquinoline-3-carboxylic acid]",–,–,–
–,–,0.39,0.39,0.1,"C[C@H]1COc2c(N3CCN(C)CC3)c(F)cc3c(=O)c(C(=O)O)cn1c23 [Levofloxacin, levofloxacin, reference compound]",–,–,–
–,–,0.78,0.2,0.1,"C[C@@H]1CN(c2c(F)c(N)c3c(=O)c(C(=O)O)cn(C4CC4)c3c2F)C[C@H](C)N1 [Sparfloxacin, sparfloxacin, reference compound]",–,–,–
–,–,0.39,0.2,0.05,"NC1CCN(c2nc3c(cc2F)c(=O)c(C(=O)O)cn3-c2ccc(F)cc2F)C1 (centres unmarked) [Tosufloxacin, tosufloxacin, reference compound]",–,–,–
